The text below walks through data of US12109195B2, “Compositions and methods for treatment of vaginal infections” (priority 2020, dated 2024).

Where a name gives a salt, the structure may show the parent alone.

The subject of one assay is M. mulieris. Nature of the assay: Minimum inhibitory concentration (MIC) against M. mulieris, two-fold dilutions in 96-well plates. In kind it is cell-based, Mobiluncus mulieris. Particulars: FIG. 2A. The method, then: The minimum inhibitory concentration (MIC) for each solution was determined against M. mulieris using two-fold dilutions and flat-bottom 96-well plates. […] Methods for Antimicrobial Susceptibility Testing of Anaerobic Bacteria; Approved Standard—6th Edition).

Another assay relates to G. vaginalis. Kind of assay: Minimum inhibitory concentration (MIC) against G. vaginalis, two-fold dilutions in 96-well plates. Type of assay: cell-based. Particulars: Gardnerella vaginalis; after 48 hours; tested 0.0625 to 16 mg/mL; FIG. 1A; read-out: concentration showing significant inhibition of growth of G. vaginalis (MIC). How it is done: Formulations of creatinine hydrochloride were prepared in different concentrations to evaluate the effect on the inhibition of growth of G. vaginalis. Creatinine hydrochloride was used in varying concentrations ranging from 0.0625 mg/mL to 16 mg/mL. The minimum inhibitory concentration (MIC) for each solution was determined against G. vaginalis using two-fold dilutions and flat-bottom 96-well plates.

`CN1CC(=O)NC1=N` [creatinine hydrochloride]: the MIC is 4000 µg/mL with M. mulieris (Mobiluncus mulieris, after 48 hours, tested 0.0625 to 16 mg/mL, read-out: concentration that inhibited growth of M. mulieris (MIC)) and 4000 µg/mL in the assay with G. vaginalis. The “concentration that still inhibited growth of M. mulieris” value in the assay on M. mulieris (after 72 hours) is listed as 8 mg/mL.
